Molecules are shown by their SMILES. “And” between values parts separate entries of the source, which are not always exact repeats. Equal entries are not always repeated.

Data set [1] concerns the target T1, BCRP (Homo sapiens, UniProt Q9UNQ0).
T1 sequence (Q9UNQ0 1-655): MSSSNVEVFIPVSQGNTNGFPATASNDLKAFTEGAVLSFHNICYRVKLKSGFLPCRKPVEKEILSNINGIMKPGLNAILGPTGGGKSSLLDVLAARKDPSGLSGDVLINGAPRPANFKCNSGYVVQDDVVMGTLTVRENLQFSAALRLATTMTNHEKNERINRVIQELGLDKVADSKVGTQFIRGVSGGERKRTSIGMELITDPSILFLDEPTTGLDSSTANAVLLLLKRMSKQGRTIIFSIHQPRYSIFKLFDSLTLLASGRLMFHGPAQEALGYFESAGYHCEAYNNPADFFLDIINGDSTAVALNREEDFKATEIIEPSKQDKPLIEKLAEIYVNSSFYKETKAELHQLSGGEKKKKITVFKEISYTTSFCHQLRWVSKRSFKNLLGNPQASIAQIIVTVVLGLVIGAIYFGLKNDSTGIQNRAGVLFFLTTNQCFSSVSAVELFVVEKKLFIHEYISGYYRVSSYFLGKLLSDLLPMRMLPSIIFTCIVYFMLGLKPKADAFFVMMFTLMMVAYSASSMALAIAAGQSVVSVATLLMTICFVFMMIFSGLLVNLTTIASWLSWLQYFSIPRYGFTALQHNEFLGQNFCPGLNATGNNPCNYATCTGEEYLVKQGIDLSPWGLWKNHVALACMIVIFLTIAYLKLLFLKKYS
Briefly: BCRP IC50 assessment, bidirectional cladribine transport in BCRP-MDCK cells. To be noted: BCRP-MDCK cells, 10 μM cladribine alone or + TUDCA/PB Solution or 0.5 μM Ko143; single replicates. The procedure:
(§1) After 30 minutes, the pre-incubation solution was aspirated.

The subject of data set [2] is P-gp and BCRP. Kind of data set: P-gp and BCRP substrate assessment, bidirectional permeability in C2BBe1 cells. To be noted: for AP-to-BL Papp / BL-to-AP Papp / Papp A→B at 10 µM / Papp B→A at 10 µM: C2BBe1 cells, 10 μM probe; for Papp A→B at 10 µM / recovery at 10 μM / Papp B→A at 10 µM: human; for Papp A→B at 10 µM: Caco-2, pH 7.4, AP-to-BL Papp; for Papp B→A at 10 µM: Caco-2, pH 7.4, BL-to-AP Papp. As to the method:
The P-gp and BCRP substrate assessment was conducted in C2BBe1 cell monolayers. […] LY was co-dosed with each dosing solution at a nominal concentration of 200 μM.
The cell culture medium was aspirated, and the cell monolayers were rinsed once with HBSSg_7.4. […] For receiver samples, aliquots (300 μL) were taken at pre-selected time points. […] For donor samples, aliquots (50 μL) were taken at pre-selected time points without replacement.
A general note: Caco-2 monolayers are a common model of the intestinal barrier.

The test system of data set [3] is CYP2B6 mRNA. Briefly: Induction of CYP2B6 mRNA in human hepatocytes (qPCR). Conditions: controls: 1,000 μM phenobarbital, 10 μM flumazenil, 72 h. As to the method: Plateable and inducible cryopreserved human hepatocytes were thawed and isolated in human hepatocyte thawing medium.
All experiments were performed in triplicate.
After induction treatment, CYP mRNA expression was measured by qPCR. Total RNA was isolated from the treated cells using the RNeasy® mini kit (Qiagen, Valencia, Calif., USA) and treated with RNase-free DNase (Qiagen) following the manufacturer's protocols. The concentration of RNA was determined using a Qubit® Fluorometer with a Qubit RNA HS assay kit (Invitrogen). cDNA was synthesized from up to 1 μg of the total RNA harvested from the cells using a QuantiTect® RT kit (Qiagen). Analysis of CYP gene expression by qPCR (Table 3) was performed using the LightCycler® 480 II System (Roche Diagnostics Corporation, Indianapolis, Ind., USA).
Relative mRNA was expressed as the fold-increase calculated from the normalized mRNA level (2^−ΔΔCt) relative to vehicle control. The percentage of mRNA fold-increase relative to positive control was calculated using the following equation:
% Induction relative to positive control=100×(mRNATA−mRNAvehicle)/(mRNApositive control−mRNAvehicle)
A general note: Real-time PCR tracks product formation cycle by cycle.

In data set [4] the test system is human hepatocytes. Kind of data set: Cell viability after CYP induction treatment (MTS). Conditions: controls: 50 μM OME, 1,000 μM phenobarbital, 50 μM RIF, 10 μM flumazenil, 72 h. As to the method: Plateable and inducible cryopreserved human hepatocytes were thawed and isolated in human hepatocyte thawing medium. […] After attachment (4 hours), the medium was changed to fresh hepatocyte culture medium for overnight cell recovery. […] A positive control (100 μM chlorpromazine) was treated in parallel. […] The absorbance of formazan, which is proportional to the number of viable cells, was measured spectrophotometrically using the CellTiter 96® AQueous One Solution Cell Proliferation Assay (MTS).
After the CYP induction treatment, the cells were used for cell viability assay. The viability of cells (expressed as the percentage of MTS absorbance relative to vehicle control) was measured as described herein.

The target of data set [5] is T2, P-gp (Homo sapiens, UniProt P08183). Kind of data set: P-gp IC50 assessment, bidirectional digoxin transport in C2BBe1 cells. The procedure:
as §1

Data set [6] has as its target T2, P-gp. Kind of data set: P-gp IC50 assessment, bidirectional digoxin transport in MDR1-MDCK cells.
The target of data set [7] is CYP2C9 (Homo sapiens, UniProt P11712). Briefly: in vitro. Conditions: microsomes; for % of Control Enzyme Activity: 30 min, pH 7.4. The procedure:
CYP TDI was evaluated by a 30-minute pre-incubation of the TA with HLM in the presence and absence of NADPH followed by the CYP enzyme activity assay. […] The total organic solvent content in the final incubation was less than 1% (DMSO ≤0.1%, other organic solvent ≤1%). The CYP reactions were initiated by adding an individual CYP probe substrate with (when NADPH was not added in the pre-incubation step) or without (when NADPH was added in the pre-incubation step) the addition of NADPH (1 mM). The reaction mixture was incubated at 37° C. for 10-30 minutes depending on the individual CYP isoform (Table 24). The reaction was terminated with ice-cold acetonitrile (ACN) containing an internal standard (IS, stable isotope-labeled CYP probe metabolite). Negative (vehicle) controls were conducted using the incubation mixture without the TA. Positive controls were performed in parallel using known CYP time-dependent inhibitors. […] The formation of individual CYP probe metabolites was determined by LC-MS/MS.
The enzyme activity was expressed as the peak area ratio of CYP probe metabolite to IS, measured by LC-MS/MS.

Where [8] appears, read: batch used with Sol_1, Sol_3, and Sol_4, single replicates.
[9] abbreviates: batch used with Sol_2, single replicates.
Where [10] appears, read: batch used with Sol_1, Sol_3, and Sol_4, Average.
[11] abbreviates: pH 7.4, % of Control Enzyme Activity.

Chain of CYP2C9 (P11712 whole entry, canonical isoform): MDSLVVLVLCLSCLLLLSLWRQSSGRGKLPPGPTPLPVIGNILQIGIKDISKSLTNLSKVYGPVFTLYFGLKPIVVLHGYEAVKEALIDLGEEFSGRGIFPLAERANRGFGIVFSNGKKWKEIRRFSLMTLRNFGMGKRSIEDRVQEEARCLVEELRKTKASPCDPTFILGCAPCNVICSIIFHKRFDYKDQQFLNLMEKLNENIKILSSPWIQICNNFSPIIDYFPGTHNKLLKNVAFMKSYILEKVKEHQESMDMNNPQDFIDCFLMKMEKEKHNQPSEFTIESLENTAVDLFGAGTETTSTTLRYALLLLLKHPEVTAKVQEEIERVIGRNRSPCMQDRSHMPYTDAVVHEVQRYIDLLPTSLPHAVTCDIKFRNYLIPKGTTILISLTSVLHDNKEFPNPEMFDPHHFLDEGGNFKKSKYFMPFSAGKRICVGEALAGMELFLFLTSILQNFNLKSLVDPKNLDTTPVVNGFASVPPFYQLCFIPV
T2 sequence (P08183 whole entry): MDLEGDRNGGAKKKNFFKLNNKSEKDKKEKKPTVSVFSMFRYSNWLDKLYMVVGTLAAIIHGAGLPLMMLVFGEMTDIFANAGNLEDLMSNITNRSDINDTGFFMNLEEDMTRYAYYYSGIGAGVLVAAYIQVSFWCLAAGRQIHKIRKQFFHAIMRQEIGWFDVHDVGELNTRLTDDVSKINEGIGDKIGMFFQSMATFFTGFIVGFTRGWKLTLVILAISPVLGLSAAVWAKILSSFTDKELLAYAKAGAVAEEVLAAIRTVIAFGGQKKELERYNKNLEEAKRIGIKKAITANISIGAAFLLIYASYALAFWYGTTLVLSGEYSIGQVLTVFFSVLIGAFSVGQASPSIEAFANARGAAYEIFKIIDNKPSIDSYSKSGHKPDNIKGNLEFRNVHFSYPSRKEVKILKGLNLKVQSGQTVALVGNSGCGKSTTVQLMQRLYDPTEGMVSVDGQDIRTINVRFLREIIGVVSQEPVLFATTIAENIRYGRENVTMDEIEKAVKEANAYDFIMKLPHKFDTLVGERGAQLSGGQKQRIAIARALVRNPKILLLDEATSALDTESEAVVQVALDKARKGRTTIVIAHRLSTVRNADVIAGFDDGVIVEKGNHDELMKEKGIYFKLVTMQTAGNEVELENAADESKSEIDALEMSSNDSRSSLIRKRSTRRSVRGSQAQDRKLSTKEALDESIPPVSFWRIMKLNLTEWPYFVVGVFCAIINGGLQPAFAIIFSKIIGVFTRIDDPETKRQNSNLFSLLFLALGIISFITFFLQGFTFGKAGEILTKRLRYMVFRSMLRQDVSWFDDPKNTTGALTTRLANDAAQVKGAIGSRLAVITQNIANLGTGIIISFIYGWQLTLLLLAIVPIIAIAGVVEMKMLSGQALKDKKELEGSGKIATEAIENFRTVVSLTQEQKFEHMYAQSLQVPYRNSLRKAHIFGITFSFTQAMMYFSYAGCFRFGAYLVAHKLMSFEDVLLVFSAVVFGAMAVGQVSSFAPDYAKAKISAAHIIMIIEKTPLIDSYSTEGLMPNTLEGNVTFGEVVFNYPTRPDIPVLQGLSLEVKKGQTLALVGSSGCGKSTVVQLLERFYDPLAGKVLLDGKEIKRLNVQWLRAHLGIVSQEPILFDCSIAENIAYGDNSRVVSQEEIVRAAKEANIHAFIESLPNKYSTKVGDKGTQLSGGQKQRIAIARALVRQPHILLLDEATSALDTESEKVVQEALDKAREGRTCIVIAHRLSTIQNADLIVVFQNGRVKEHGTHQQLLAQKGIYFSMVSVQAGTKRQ

Consider `Nc1nc(Cl)nc2c1ncn2[C@H]1C[C@H](O)[C@@H](CO)O1` [cladribine], for which the “BL-to-AP Papp of cladribine” value in data set [1] was 15.5 10^−6 cm/s. The “AP-to-BL Papp” value in data set [2] (setting [8]) was 0.549 10^−6 cm/s and 0.580 10^−6 cm/s; in data set [2] (setting [9]), 0.612 10^−6 cm/s and 0.554 10^−6 cm/s. The “BL-to-AP Papp” value was 13.3 10^−6 cm/s and 13.0 10^−6 cm/s in data set [2] (setting [8]); 12.4 10^−6 cm/s and 13.1 10^−6 cm/s in data set [2] (setting [9]). For the same compound, the Papp A→B at 10 µM was 0.5 ×10⁻⁶ cm/s in data set [2] (setting [10]); 0.37 ×10⁻⁶ cm/s in data set [2] (setting [8]); 0.648 ×10⁻⁶ cm/s in data set [2] (batch used with Sol_2, Average); 0.778 ×10⁻⁶ cm/s in data set [2] (setting [9]). The recovery at 10 μM is 95.3% in data set [2] (Caco-2, pH 7.4, AP-to-BL Recovery) and 92.9% in data set [2] (Caco-2, pH 7.4, BL-to-AP Recovery). Also, the Papp B→A at 10 µM amounted to 13.5 ×10⁻⁶ cm/s in data set [2] (setting [10]); 14.1 ×10⁻⁶ cm/s in data set [2] (setting [8]); 12.8 ×10⁻⁶ cm/s in data set [2] (batch used with Sol_2, Average); 12.8 ×10⁻⁶ cm/s in data set [2] (setting [9]).
On to `CCC1(c2ccccc2)C(=O)NC(=O)NC1=O` [Phenobarbital, phenobarbital], for which the “CYP2B6 mRNA % Induction Relative to Positive Control” value in data set [3] (donor 1), in data set [3] (donor 2) and in data set [3] (donor 3) was 100% in each case. For the same compound, the “CYP2B6 mRNA Fold-increase (n = 3) Mean” value in data set [3] (donor 1) came out at 21.8 fold; in data set [3] (donor 2) it was 39.6 fold; in data set [3] (donor 3), 7.36 fold. For the same compound, the “% MTS Absorbance Relative to Vehicle Control” value in data set [4] (donor 1) came out at 97.7%; in data set [4] (donor 2), 98.8%; in data set [4] (donor 3), 108%. Further, the “Formazan Absorbance (n = 6) Mean” value stood at 0.417 in data set [4] (donor 1), 0.504 in data set [4] (donor 2) and 0.320 in data set [4] (donor 3).
`C/C=C/C[C@@H](C)C(=O)[C@H]1C(=O)N[C@@H](C(C)C)C(=O)N(C)CC(=O)N(C)[C@@H](CC(C)C)C(=O)N[C@@H](C(C)C)C(=O)N(C)[C@@H](CC(C)C)C(=O)N[C@@H](C)C(=O)N[C@H](C)C(=O)N(C)[C@@H](CC(C)C)C(=O)N(C)[C@@H](CC(C)C)C(=O)N(C)[C@@H](C(C)C)C(=O)N1C` [valspodar, reference compound]: in data set [5] (C2BBe1 cells, 10 μM digoxin + TUDCA/PB Solution or 1 μM valspodar), the “Percent Inhibition (P-gp, digoxin efflux)” value came out at 99.3%. The inhibition at 1 μM in data set [5] (human, pH 7.4) was 99.3%; in data set [6] (human, MDR1-MDCK cell monolayers on Transwell plates, pH 7.4, probe digoxin (10 μM)), 99.9%. For the same compound, the “Percent Inhibition (P-gp)” value in data set [6] (10 μM Digoxin + 1 μM Valspodar, MDR1-MDCK cells) is on record as 99.9%.
Turning to `O=C(O)COc1ccc(C(=O)c2cccs2)c(Cl)c1Cl` [Tienilic acid], the “% of Control Enzyme Activity” value in data set [7] (10 µM) amounted to 11.7%. Also, the “% of Control Enzyme Activity” value in data set [7] (30 µM) is given as 9.64%. Further, in data set [7] (setting [11]), the activity at 30 min, 10 µM turned out to be 22.2% and the activity at 30 min, 30 µM turned out to be 16.2%.

The term Papp A→B denotes the apparent permeability from the apical to the basolateral side of a cell layer. Read a low Papp A→B as poor permeation. One may read the Papp B→A as how fast a substance crosses the layer from the basolateral side. One may read the inhibition as the share of the control response that was lost under treatment. A lower inhibition goes with a weak effect.

These data come from US20230277630A1, “METHODS AND COMPOSITIONS FOR TREATING AMYOTROPHIC LATERAL SCLEROSIS” (Amylyx Pharmaceuticals, Inc., priority 2022, published 2023).
